Assay results from ChEMBL document CHEMBL3045987, “Antitussive effects of azepino[2,1-b]quinazolones” (Med Chem Res, 2012).
The source made the active and inactive calls. The calls are words filed in the database; no cut-off is given here.

Key:
Type in all cases: functional, organism-based
[1] = tested on: Cavia porcellus; experiment: Antitussive activity against citric acid-induced cough in Cavia porcellus albino (guinea pig) model assessed as decrease in cough frequency per 10 min at 5 to 20 mg/kg, ip administered 30 min before aersol of citric acid for 10 min
[2] = tested on: Cavia porcellus; experiment: Antitussive activity against citric acid-induced cough in Cavia porcellus albino (guinea pig) model assessed as increase in cough latency at 5 to 20 mg/kg, ip administered 30 min before aersol of citric acid for 10 min
[3] = tested on: Cavia porcellus; experiment: Antitussive activity against citric acid-induced cough in Cavia porcellus albino (guinea pig) model assessed as decrease in cough frequency per 10 min at 10 mg/kg, ip administered 30 min before aersol of citric acid for 10 min; set-up: dose 10 mg/kg
[4] = tested on: Cavia porcellus; experiment: Antitussive activity against citric acid-induced cough in Cavia porcellus albino (guinea pig) model assessed as increase in cough latency at 10 mg/kg, ip administered 30 min before aersol of citric acid for 10 min; set-up: dose 10 mg/kg

O=C1c2ccccc2N(C(=O)c2ccccc2)C2CCCCCN12 (centres undefined)
inhibition [1]: Active
Activity [2]: Active

O=c1c2cc(Br)cc(Br)c2nc2n1CCCCC2
inhibition [1]: Active
Activity [2]: Active

CC(=O)N1c2ccccc2C(=O)N2CCCCCC21 (centres undefined)
inhibition [1]: Active
Activity [2]: Active

COc1ccc2c3c1O[C@H]1[C@@H](O)C=C[C@H]4[C@@H](C2)N(C)CC[C@@]341
inhibition [3]: Active
Activity [4]: Active

COc1cc(OC)c2nc3n(c(=O)c2c1)CCCCC3
inhibition [1]: Active
Activity [2]: Active

O=c1c2ccccc2nc2n1CCCCC2
inhibition [1]: Active
Activity [2]: Active

COc1ccc(CNc2ccc3nc4n(c(=O)c3c2)CCCCC4)cc1OC
inhibition [1]: Active
Activity [2]: Active

O=C1c2ccccc2N(Cc2ccccc2)C2CCCCCN12 (centres undefined)
inhibition [1]: Active
Activity [2]: Active

O=c1c2cc(O)cc(O)c2nc2n1CCCCC2
inhibition [1]: Active
Activity [2]: Active

Nc1ccc2nc3n(c(=O)c2c1)CCCCC3
inhibition [1]: Active
Activity [2]: Active

O=c1c2cc([N+](=O)[O-])ccc2nc2n1CCCCC2
inhibition [1]: Active
Activity [2]: Active

O=c1c2cc(NCc3ccc([N+](=O)[O-])cc3)ccc2nc2n1CCCCC2
inhibition [1]: Active
Activity [2]: Active

CN1c2ccccc2C(=O)N2CCCCCC21 (centres undefined)
inhibition [1]: Active
Activity [2]: Active

CCN1c2ccccc2C(=O)N2CCCCCC21 (centres undefined)
inhibition [1]: Active
Activity [2]: Active

O=C1c2ccccc2NC2CCCCCN12 (centres undefined)
inhibition [1]: Active
Activity [2]: Active

COc1cc(CNc2ccc3nc4n(c(=O)c3c2)CCCCC4)cc(OC)c1OC
inhibition [1]: Active
Activity [2]: Active

N#Cc1ccc(CNc2ccc3nc4n(c(=O)c3c2)CCCCC4)cc1
inhibition [1]: Active
Activity [2]: Active
